Data on three molecules can be found in PMC11784221, “Platelet factor 4-derived C15 peptide broadly inhibits enteroviruses by disrupting viral attachment” (Journal of Virology, 2025).

Where no end group is shown, it is not given here.

In data set [1] the test system is EV71. To be noted: read-out: EC50 for EV71; RD cells, 48 h, intracellular VP1 mRNA by RT-qPCR vs GAPDH, three independent experiments, four-parameter fit. In general terms: In qPCR the cycle at which signal appears reflects the starting amount.
Data set [2] in a line: C15 alone in neonatal mice without CA6 infection (toxicity). The format is in vivo, ICR mice. Here is the method:
To investigate the anti-viral efficacy of C15 against CA6 in vivo, we established a lethal infection model using 1-day-old ICR mice. The mice were infected with CA6 at a concentration of 10^7 TCID50 and then treated with two different concentrations of C15 (1 and 5 mg/kg). The mice were monitored over a period of 7 days to assess various indicators (Fig. 7A). The mice in the control group, which received Dulbecco’s Modified Eagle Medium (DMEM) alone, began to succumb to the infection on day 4, with all mice dying by day 6. On day 6, the average clinical score of the mice in the control group was 5. […] Treatment with 1 mg/kg C15 improved survival rates by 60%, while 5 mg/kg C15 provided complete protection, achieving a 100% survival rate (Fig. 7D).
ICR pregnant specific pathogen-free mice were purchased from Beijing Vital River Laboratory. Pregnant mice gave birth approximately 5 days after arrival at the laboratory. One day-old ICR neonatal mice were used to establish the CA6 infection mouse model. The CA6 virus, at a concentration of 10^7 TCID50/mL, was mixed with varying concentrations of C15 (1 and 5 mg/kg) and intracranially injected into the 1 day-old neonatal mice (10 µL per mouse). Five experimental groups were designed, and observations of various indicators were conducted over the subsequent 7 days, as well as samples collected for analysis. […]

Data set [3] relates to CA16. To be noted: read-out: EC50 for CA16; RD cells, 48 h, intracellular VP1 mRNA by RT-qPCR vs GAPDH, three independent experiments, four-parameter fit.
In data set [4] the test system is EVD68. To be noted: read-out: EC50 for EVD68; RD cells, 48 h, intracellular VP1 mRNA by RT-qPCR vs GAPDH, three independent experiments, four-parameter fit.
The subject of data set [5] is RD cells. The settings on record: 48 h treatment, CCK-8, absorbance 450 nm, n = 3.
Data set [6] deals with CA6. The settings on record: read-out: EC50 for CA6; RD cells, 48 h, intracellular VP1 mRNA by RT-qPCR vs GAPDH, three independent experiments, four-parameter fit.
The subject of data set [7] is CA6. Kind of data set: Purified PF4-His added to cells infected with CA6. The settings on record: increasing doses of purified PF4-His, 48 h, Western blot, RT-qPCR, TCID50. It counts as cell-based, coxsackievirus A6. Here is the method:
(§1) (A and B) HEK-293T cells transfected with cDNA-PF4-Myc or the VR1012 expression vector serving as a control. […] (C and D) Viral loads in the supernatant were evaluated by measuring VP1 gene mRNA levels using reverse transcription quantitative PCR (RT-qPCR). (E and H) PF4-His proteins expressed in Escherichia coli were added to the cell supernatant at the indicated concentration, and the cells were simultaneously infected with CA6 or EVD68. Cell lysates and supernatants (concentrated 100-fold) were collected at 48 h. Western blot was performed to detect the viral VP1 protein in the cells and supernatant, with tubulin serving as a loading control. (F and I) Intracellular mRNA levels of VP1 were determined by RT-qPCR, using GAPDH as a control. (G and J) 50% tissue culture infective dose (TCID50) assays were performed using supernatants collected from infected rhabdomyosarcoma cells at 48 h, containing various concentrations of PF4-His.
(§2) PF4 is a secreted protein. To further assess its anti-viral potential, PF4 proteins were expressed and purified from Escherichia coli. […]
(§3) The cDNA of PF4-His with His tag at the N-terminus was synthesized and inserted into PEXs-DH by Comate Bioscience Company and expressed in E. coli BL21-derived cells. […] The […] of the resulting proteins was determined through BCA Protein Assay Kits (Epizyme, #ZJ102L) analysis.
On the technique in general: A western blot detects proteins with antibodies after separation by electrophoresis.

Data set [8] has as its system EVD68. Kind of data set: Purified PF4-His added to cells infected with EVD68. It counts as cell-based, enterovirus D68. To be noted: increasing doses of purified PF4-His, 48 h, Western blot, RT-qPCR, TCID50. Here is the method:
as §1, §2, §3

The target in data set [9] is Enterovirus D68 (EVD68) virion, strain US/KY/14-18953 (enterovirus D68).
Data set [10] addresses Coxsackievirus A6 (CA6) virion, strain changchun046/CHN/2013 (coxsackievirus A6).

Regarding QAPLYKKIIKKLLES [C15], the 50% effective concentration (EC50) (as a rule, the midpoint of the concentration-response curve) in data set [1] was 5.36 nM; in [3], 10 nM; in data set [4], 5.41 nM; in data set [6], 3.12 nM. In addition, the “Toxicity in neonatal mice (clinical scores, body weight, survival rates versus DMEM control)” value in [2] (5 mg/kg C15 without CA6 infection, intracranial, 1-day-old ICR mice) is recorded as “no toxicity”. In data set [2] (injection of C15 alone in mice), the “VITT-related symptoms (weight loss, nosebleeds, gum bleeding, gastrointestinal bleeding)” value was “did not result in VITT-related symptoms”. The molecule also had a 50% cytotoxic concentration in data set [5] of more than 100 µM.

B1: PF4-His: Platelet factor 4 with His tag at the N-terminus, expressed in E. coli and purified (protein)
chain: EAEEDGDLQCLCVKTTSQVRPRHITSLEVIKAGPHCPTAQLIATLKNGRKICLDLQAPLYKKIIKKLLES
modifications: left off: Myc, N-terminal, kept
notes: Platelet factor 4 with His tag at the N-terminus, expressed in E. coli and purified
Take B1: the “VP1 protein and mRNA levels of CA6 and viral titer in supernatant” value in data set [7] is “gradually decreased”. The “VP1 protein and mRNA levels of EVD68 and viral titer in supernatant” value in data set [8] is given as “gradually decreased”.

For QAPLYKKIIKKLLES [C15 peptide (C-terminal 15 amino acids of PF4)], the EC50 of inhibition of EVD68 replication in RD cells (intracellular VP1 mRNA by RT-qPCR, 48 h) in data set [9] amounted to 5.41 nM. The EC50 of inhibition of CA6 replication in RD cells (intracellular VP1 mRNA by RT-qPCR, 48 h) in [10] was found to be 3.12 nM.
